The source made the active and inactive calls. The calls are words filed in the database; no cut-off is given here.
How the values were obtained:
[1] = molecular target: Ras-related C3 botulinum toxin substrate 1 (Homo sapiens) (UniProt P63000); assay: Inhibition of Rac1-mediated WAVE-2/Arp2/3 expression in human MDA-MB-231 cells after […] by Western blotting analysis; assay type: cell-based
[2] = molecular target: Ras-related C3 botulinum toxin substrate 1 (Homo sapiens) (UniProt P63000); assay: Inhibition of Rac1 in human MDA-MB-231 cells at 10 uM after 30 mins by G-LISA activity assay; assay type: cell-based
[3] = molecular target: Ras-related C3 botulinum toxin substrate 1 (Homo sapiens) (UniProt P63000); assay: Inhibition of Rac1 in human MDA-MB-231 cells at 5 uM after 30 mins by G-LISA activity assay; assay type: cell-based
[4] = molecular target: Ras-related C3 botulinum toxin substrate 1 (Homo sapiens) (UniProt P63000); assay: Inhibition of Rac1 in human MDA-MB-231 cells at 2 uM after 30 mins by G-LISA activity assay; assay type: cell-based
[5] = organism: Homo sapiens; assay: Inhibition of DNA binding of NF-kappaB (unknown origin) on uPA promoter at 10 uM by ChIP assay
[6] = system: MDA-MB-231; assay: Inhibition of NF-kappaB activation in human MDA-MB-231 cells after 24 hrs by luciferase assay; assay type: cell-based
[7] = molecular target: Urokinase-type plasminogen activator (Homo sapiens) (UniProt P00749); assay: Inhibition of uPA activity in human MDA-MB-231 cells at 10 uM; assay type: cell-based; design: scale not given: the % may be the effect or the level left
[8] = molecular target: Urokinase-type plasminogen activator (Homo sapiens) (UniProt P00749); assay: Inhibition of uPA activity in human MDA-MB-231 cells at 5 uM; assay type: cell-based; design: scale not given: the % may be the effect or the level left
[9] = system: MDA-MB-231; assay: Down-regulation of uPAR mRNA expression in human MDA-MB-231 cells at 2 to 10 uM after 24 hrs by RT-PCR analysis; assay type: functional, cell-based
[10] = system: MDA-MB-231; assay: Down-regulation of uPA mRNA expression in human MDA-MB-231 cells after 24 hrs by RT-PCR analysis; assay type: functional, cell-based
[11] = system: MDA-MB-231; assay: Antiinvasion activity in human MDA-MB-231 cells reduction of cell assessed as inhibition of FBS-induced cell invaded to lower surface at 10 uM after 24 hrs; assay type: functional; conditions: MDA-MB-231, 24 h
[12] = system: MDA-MB-231; assay: Antiinvasion activity in human MDA-MB-231 cells reduction of cell assessed as inhibition of FBS-induced cell invaded to lower surface at 5 uM after 24 hrs; assay type: functional; conditions: MDA-MB-231, 24 h
[13] = system: MDA-MB-231; assay: Antiinvasion activity in human MDA-MB-231 cells reduction of cell assessed as inhibition of FBS-induced cell invaded to lower surface at 2 uM after 24 hrs; assay type: functional; conditions: MDA-MB-231, 24 h
[14] = system: MDA-MB-231; assay: Inhibition of cell migration in human MDA-MB-231 cells assessed as reduction of cell migrated into scratched area at 10 uM after 24 hrs by wound healing assay; assay type: functional; conditions: MDA-MB-231, 24 h
[15] = system: MDA-MB-231; assay: Inhibition of cell migration in human MDA-MB-231 reduction of cell assessed as cells migrated into scratched area at 5 uM after 24 hrs by wound healing assay; assay type: functional; conditions: MDA-MB-231, 24 h
[16] = system: MDA-MB-231; assay: Inhibition of cell migration in human MDA-MB-231 cells reduction of cell assessed as cells migrated into scratched area at 2 uM after 24 hrs by wound healing assay; assay type: functional; conditions: MDA-MB-231, 24 h
[17] = system: MDA-MB-231; assay: Cytotoxicity against human MDA-MB-231 cells assessed as cell viability up to 10 uM after 24 hrs by MTT assay relative to control; assay type: cell-based; conditions: mda-mb-231, 24 h
[18] = Cytotoxicity against human MDA-MB-231 cells assessed as cell viability at 40 uM after 24 hrs by MTT assay relative to control; assay type: cell-based; conditions: read-out: Activity

COc1cc(/C=C/c2ccc(O)cc2)cc(OC)c1 [PTEROSTILBENE]
inhibition [1]: Dose-dependent effect
inhibition [2]: 27%
inhibition [3]: 22%
inhibition [4]: 14%
inhibition [5]: Active
inhibition [6]: Dose-dependent effect
Activity [7]: 61%
Activity [8]: 25%
Activity [9]: inactive
Activity [10]: Dose-dependent effect
inhibition at 10 µM [11]: 38%
inhibition at 5 µM [12]: 29%
inhibition at 2 µM [13]: 20%
inhibition at 10 µM [14]: 76%
inhibition at 5 µM [15]: 59%
inhibition at 2 µM [16]: 25%
Activity [17]: Non-toxic
viability at 24 h, 40 µM [18]: 40%

Source: ChEMBL document CHEMBL3112584, “Urokinase-type plasminogen activator expression and Rac1/WAVE-2/Arp2/3 pathway are blocked by pterostilbene to suppress cell migration and invasion in MDA-MB-231 cells” (Bioorg Med Chem Lett, 2014)
